# Patent US11007355B2 (TARIS Biomedical LLC, priority 2012, dated 2021)
# Where “and” joins values, the source holds several entries; their conditions need not be identical. Identical values can stand only once. Entries after “also recorded” stand apart in the source; their conditions may differ. Like-named read-outs stand apart in the source and are kept apart here.
# What was measured:
# [1] = system: male Sprague Dawley rats; experiment: Bladder tolerability in rats: clinical observations during perfusion and tissue observations at necropsy (Example 1); assay type: in vivo, rat
# Procedure: For each drug, each test group included three male rats. The perfusate drug concentration was set to 0.3 mg/mL and the perfusion rate used was 300 μL/hour over the test periods.
# Perfusion solutions were prepared by dissolving each drug substance into an appropriate volume of saline. The finals doses administered are summarized below.
# [2] = Platinum content of blood, urine and terminal tissues by ICP-MS after bladder perfusion or IV bolus (Example 1); assay type: in vivo, rat
# [3] = system: male Sprague Dawley rats; conditions: 72-hour bladder perfusion
# Procedure: (§1) Blood, urine, and tissue samples were collected and analyzed for drug content.
# (§2) The perfusate formulation concentration was 0.308 mg/mL. Dose (mg/kg) was calculated as (Dose administered (g) x formulation concentration (mg/mL))/Animal Wt. (kg). The drug solutions were dosed over a 72-hour period into the non-fasted animal's bladder by intra-urinary bladder cannula using an infusion pump.
# (§3) Whole blood samples were taken via tailnick or jugular vein cannula at the following time points following the start of perfusion: 0, 4, 8, 24, and 48 hours. Urine was collected pre-dose and for 0-24, 24-48, and 48-72-hour periods post dose.
# (§4) Following the 72-hour infusion period the animals were sacrificed, terminal blood samples were taken via the abdominal aorta, and bladder, prostate, ureter, and kidney tissues were collected, weighed, and visually inspected for evidence of tolerability/reaction from exposure to the drug.
# [4] = Oxaliplatin tissue permeability: platinum in blood, urine and tissues after 72-hour bladder perfusion (Example 2)
# Procedure: as §1, §2, §3, §4
# [5] = Group 1: 24-hr bladder perfusion, 0.3 mg/mL
# [6] = Group 2: 72-hr bladder perfusion, 0.3 mg/mL
# [7] = Group 4: IV bolus with saline perfusion via cannula
# [8] = 0.308 mg/mL, individual animals 47, 48, 49
smiles,measurement,setting,value
N.N.O=C([O-])C1(C(=O)[O-])CCC1.[Pt+2] [carboplatin],Tissue Observations at Necropsy: bladder lumen erythemic discoloration (grade),[1]; [5],Bladder lumen: slight to mild
same,"Tissue Observations at Necropsy: erythemic discoloration, share of lumen",[1]; [5],10-30 % of lumen
same,Tissue Observations at Necropsy: evidence of tissue edema/thickened bladder walls,[1]; [5],no
same,Clinical Observations of note during Perfusion,"[1]; Group 1: 24-hr perfusion via cannula to bladder dome, 0.3 mg/mL, 300 μL/hour, 3 male rats",Normal
same,Tissue Observations at Necropsy: bladder lumen erythemic discoloration (grade),[1]; [6],Bladder lumen: slight to mild
same,"Tissue Observations at Necropsy: erythemic discoloration, share of lumen",[1]; [6],10-30 % of lumen
same,Tissue Observations at Necropsy: evidence of tissue edema/thickened bladder walls,[1]; [6],no
same,Clinical Observations of note during Perfusion,"[1]; Group 2: 72-hr perfusion via cannula to bladder dome, 0.3 mg/mL, 300 μL/hour, 3 male rats",Normal
same,Tissue Observations at Necropsy: bladder lumen erythemic discoloration (grade),[1]; [7],Bladder lumen: slight generalized
same,"Tissue Observations at Necropsy: erythemic discoloration, share of lumen",[1]; [7],"erythemic discoloration, 5-10% of lumen"
same,Clinical Observations of note during Perfusion,"[1]; Group 4: IV bolus with saline perfusion via cannula, 3 male rats",Red tinted urine
same,Appearance of animals during perfusion period,"[1]; all dosed animals (Groups 1, 2, 4)",all animals appeared normal
same,Bladder tolerability and tissue permeability criteria (overall),"[1]; bladder perfusion, Example 1",meet only one or other of these criteria
same,Blood profile (platinum),"[2]; IV bolus, FIG. 8",significant peak systemic platinum exposure followed by a sharp decay
same,Amount in the IV bolus terminal phase as compared with cisplatin,"[2]; IV bolus, blood",one quarter less
same,Therapeutic tissue platinum concentrations by intravesical perfusion,[2]; bladder perfusion 0.3 mg/mL,does not achieve therapeutic tissue platinum concentrations
same,"Observed plasma levels (blood profile, platinum)","[2]; bladder perfusion groups, FIG. 8",near the limit of the assay detection (twice the limits of detection) to below the quantitation limit
same,Tissue levels (terminal platinum concentrations) compared with cisplatin,"[2]; bladder perfusion, FIG. 9",consistently less than those observed following cisplatin bladder perfusion
same,Bladder tissue concentrations relative to IC50,"[2]; bladder perfusion, terminal bladder tissue",below the IC50 of carboplatin
N.N.[Cl][Pt][Cl] [cisplatin],Clinical Observations of note during Perfusion,"[1]; rat, in vivo, iv",Normal
same,Tissue Observations at Necropsy (overall),"[1]; rat, in vivo, iv",No observations
same,"Bladder platinum concentrations, 72 hr perfusions compared to 24 hr perfusions","[2]; rat, in vivo",Significantly higher and more variable
same,"Blood profile (platinum, whole blood)","[2]; rat, in vivo",rising blood levels
O=C1[O][Pt]2([NH][C@@H]3CCCC[C@H]3[NH]2)[O]C1=O [oxaliplatin],Appearance of animals throughout the study,[3]; 0.308 mg/mL,All animals appeared normal
same,Observations at necropsy: erythemia (animal 48: erythemia and edema) on inside wall of bladder associated with the bladder cannula,"[3]; 0.308 mg/mL, individual animals 47, 48",bladder associated with the bladder cannula mild; also recorded: bladder associated with the bladder cannula moderate
same,Observations at necropsy: erythemia of bladder surface (grade),[3]; [8],Slight erythemia; also recorded: Slight erythemic
same,"Observations at necropsy: erythemia, share of surface",[3]; [8],20 % of surface (2×) and < 5 % of surface
same,Bladder tolerability and tissue permeability criteria (overall),[3]; Example 2,both bladder tolerability and tissue permeability
same,"Blood and kidney platinum concentrations, in contrast to cisplatin",[4]; 72-hour bladder perfusion,Comparatively low
same,Bladder platinum concentrations compared to cisplatin and carboplatin,"[4]; 72-hour bladder perfusion, FIGS. 12A-12B",significant platinum bladder concentrations
same,Platinum concentration in the kidney or prostate,"[4]; 72-hour bladder perfusion, terminal tissues",No appreciable platinum concentration
same,Blood concentrations (blood profile) compared with cisplatin and carboplatin,"[4]; 72 hour bladder perfusion, FIG. 10",fell between cisplatin and carboplatin
